Experimental data from patent publication US10766857B2, “Compound having BLT inhibitory activity and composition, for preventing or treating inflammatory diseases, comprising same as active ingredient” (DONGGUK UNIVERSITY INDUSTRY-ACADEMIC COOPERATION FOUNDATION, priority 2015, dated 2020).

Columns and labels:
[1] = tested on: asthma-induced mice (OVA+LPS); assay: OVA+LPS-induced severe asthma mice: AHR and cell influx; type: in vivo; conditions: 10 mg/kg, airway constrictor 50 mg/ml
Text: Mast cells play a pivotal role in the initial reaction to asthma, and when an allergen enters the body from the outside through an airway, the mast cells are activated, thereby secreting various cytokines (interleukin-4 and interleukin-13). Due to the cytokines, the influx of inflammatory cells, the generation of mucus and the airway contraction occur. The inventors used 7-week-old (18 to 20 g) female BALB/c mice provided by Orient (Seoungnam, Korea) for the experiment to confirm the antiasthma effect, and then the asthma was induced in the mice. On the first and 14th days, 2.5 mg of an adjuvant, aluminum hydroxide gel (alum; Pierce, Rockford, Ill.) was included in […] of ovalbumin (OVA) to intraperitoneally sensitize female […] mice. On the 21st, 22nd and 23rd days of two initial sensitizations, 1% OVA was sprayed into the mice using an ultrasonic nebulizer. The compound of the present invention (LMT-696; 5 mg/kg), LY255283 (5 mg/kg, Cayman) or DMSO was intraperitoneally injected at the 1 hour before the 1% OVA spraying. On the 24th day of the initial sensitization, airway hyperresponsiveness (AHR) was detected, and on the 25th day, the mice were dissected to observe asthma phenotypes, for example, inflammatory cytokine IL-4 expression and the influx of inflammatory cells (neutrophils). In the case of lipopolysaccharide (LPS)-induced severe asthma animal models, on the 0, 1st, 2nd and 7th days, 75 μg of OVA and 1 mg of LPS were intranasally injected into Balb/c mice for sensitization. On the 14th, 15th, 21th and 22th days, 50 μg of OVA was injected into the nose for a challenge. The compound of the present invention (LMT-1013) (1, 3, 10 or 30 mg/kg), montelukast (10 mg/kg, DRS) or a control buffer (10% DMA, 5% Tween 80, 85% brine) were treated one hour before the challenge by injecting 50 μg of OVA into the nose. On the 23rd day of the initial sensitization, AHR was detected, and on the 24th day, the mice were dissected to observe a severe asthma phenotype, for example, the influx of the inflammatory cells (neutrophils). In addition, the AHR detection was performed after an airway constrictor, methacholine (6.25 to 50 mg/ml depending on conditions), was administered to the mice. The administration of the airway constrictor was performed by spraying through an inlet of the chamber using an ultrasonic nebulizer for 3 minutes. The AHR was analyzed using an enhanced pause as the indicator of the asthma phenomenon. Bronchoalveolar lavage fluid cell counts were quantified by counting cells under an optical microscope (magnification, 200×). In each analysis, 4 fields were subjected to counting, each sample was analyzed twice, and the analysis was repeated three times.

[2] = target: T1, BLT2-expressing cells (CHO-BLT2 cells) (Homo sapiens, UniProt Q9NPC1); assay: MTT cell growth of LTB4-stimulated BLT2-expressing cells; type: cell-based; conditions: LTB4 300 nM; for inhibition at 10 µM: read-out: growth inhibitory effect; for cell growth compared with the control DMSO: pre-treated at 10 μM
T1 construct: HA; expressed in transfected cells
T1 sequence (Q9NPC1 with tags, fused parts or gaps): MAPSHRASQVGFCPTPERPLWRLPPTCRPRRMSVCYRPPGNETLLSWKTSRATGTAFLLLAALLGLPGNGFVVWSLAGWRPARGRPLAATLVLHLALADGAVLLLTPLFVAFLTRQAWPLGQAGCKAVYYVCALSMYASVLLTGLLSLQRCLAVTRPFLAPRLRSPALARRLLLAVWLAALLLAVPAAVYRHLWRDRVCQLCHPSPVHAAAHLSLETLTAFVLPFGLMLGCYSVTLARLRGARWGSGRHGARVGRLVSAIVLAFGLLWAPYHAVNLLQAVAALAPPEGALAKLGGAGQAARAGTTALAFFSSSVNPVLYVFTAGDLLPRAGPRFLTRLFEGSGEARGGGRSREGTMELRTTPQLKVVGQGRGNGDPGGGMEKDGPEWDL
Protocol: Cell viability according to treatment of the compounds prepared in the examples were measured by a 3-(4,5-dimethylthiazol-2-yl)-2,5-diphenyltetrazolium bromide (MTT) method.
More specifically, 1×10^4 each of the BLT2-nonexpressing cells (CHO-pcDNA3.1 cells) and BLT2-expressing cells (CHO-BLT2 cells), which were prepared in Experimental Example 1, were dispensed in a […], and cultured for 24 hours. Afterward, the culture medium was removed, a serum-free RPMI medium was added, and after two hours, the cells were pre-treated with each of the compound prepared in one of the examples (10 μM), 10 μM DMSO (compound solvent) as a control, and 10 μM 1-[5-ethyl-2-hydroxy-4-[[6-methyl-6-(1H-tetrazol-5-yl)heptyl]oxy]phenyl]-ethanone (LY255283; Cayman) as a positive control for 1 hour. Subsequently, after treatment of LTB4 (300 nM), the cells were cultured for 24 hours. 20 μL of an MTT solution (5 mg/mL, Sigma-Aldrich) was added to each well, the cells were cultured in a humid CO2 incubator at 37° C. for 4 hours, a supernatant was removed, and 200 μL of DMSO was added to each well to dissolve insoluble violet formazan crystals. Absorbance was measured using a microplate reader (Molecular Devices, Sunnyvale, Calif.) at 550 nm, and the measurement was repeated three times.

[3] = target: T2, BLT2 (Homo sapiens, UniProt Q9NPC1); assay: LTB4-induced chemotactic motility, Transwell, CHO-BLT2 cells; type: cell-based; conditions: LTB4 300 nM; for inhibition at 10 µM: read-out: chemotactic motility inhibited compared with LTB4 (DMSO+)
T2 construct: HA; expressed in transfected cells
T2 sequence (Q9NPC1 with tags, fused parts or gaps): T1 sequence (Q9NPC1 with tags, fused parts or gaps)
Protocol: (§1) Chemotactic motility was analyzed using a Transwell chamber including a polycarbonate filter (8-μm pore size, Corning Costar) with a 6.5-mm diameter. Specifically, the lower surface of the filter was coated with 10 μg/mL fibronectin in a serum-free RPMI 1640 medium at 37° C. for 1 hour. The experiment was performed by placing the filter dried and coated with RPMI 1640 media containing various amounts of LTB4 in the lower wells of the Transwell chamber, and loading CHO cells stably expressing BLT1 and BLT2 into the upper wells containing serum-free RPMI 1640 media finally at 2×10^4 cells/100 μL. To evaluate the effect of inhibitors, the cells were pre-treated with each inhibitor for 30 minutes before dispensing. After the cells were cultured at 37° C. in 5% CO2 for 3 hours, the filters were fixed with methanol for 3 minutes, and stained with hematoxylin and eosin for 10 minutes. In the experiment, the cells were BLT2-expressing cells (CHO-BLT2 cells) and BLT1-expressing cells (CHO-BLT1 cells), and LY255283 and U75302 were used as positive controls for each type of the cells, and BLT2 ligand LTB4, (300 nM), BLT1 ligand LTB4 (10 nM), and lysophosphatidic acid (LPA; 100 nM) were used as comparative controls. The chemotactic motility was quantitatively analyzed by counting the cells on the lower side of the filter under an optical microscope (magnification, 200×). For each analysis, 6 fields were subjected to counting, each sample was analyzed twice, and the analysis was repeated three times.

[4] = target: T3, BLT1 (Homo sapiens, UniProt Q15722); assay: LTB4-induced chemotactic motility, Transwell, CHO-BLT1 cells; type: cell-based; conditions: 10 μM pre-treatment, LTB4 10 nM
T3 construct: expressed in transfected cells; host or cells: CHO cells stably expressing BLT1 (CHO-BLT1)
T3 sequence (Q15722 whole entry, species assumed): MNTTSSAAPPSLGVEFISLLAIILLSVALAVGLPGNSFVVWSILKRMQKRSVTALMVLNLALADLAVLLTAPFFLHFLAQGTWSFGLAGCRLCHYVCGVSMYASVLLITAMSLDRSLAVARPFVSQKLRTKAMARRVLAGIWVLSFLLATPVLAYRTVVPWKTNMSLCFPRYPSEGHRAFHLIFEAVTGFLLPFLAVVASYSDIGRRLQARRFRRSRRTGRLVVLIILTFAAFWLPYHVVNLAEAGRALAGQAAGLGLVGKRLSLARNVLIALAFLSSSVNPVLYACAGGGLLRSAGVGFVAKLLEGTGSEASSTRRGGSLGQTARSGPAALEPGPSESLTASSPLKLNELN
Protocol: as §1

[5] = tested on: cancer cells (MDA-MB-231); assay: Metastasis of breast cancer cells in nude mice; type: in vivo; conditions: MDA-MB-231 in nude mice, i.p.; LMT-696 and LY255283 2.5 mg/kg, U75302 0.25 mg/kg; 15 weeks
Protocol: An experiment for the metastasis of breast cancer cells according to the treatment of the compound of the present invention was approved by the Ethics Committee of Korea University, and all experimental animals used in this experiment were treated according to the approved guidelines of the Korea University Animal Care and Use Committee. Six-week-old female nude mice (Charles River, Wilmington, Mass.) were injected with cancer cells to confirm cancer cell metastasis. The breast cancer cells were pre-treated with the compound of the present invention (LMT-696, 10 μM), LY255283, U75302 and DMSO, and 24 hours later, harvested with trypsin-EDTA, resuspended in PBS, and then 2×10^6 of the breast cancer cells were intraperitoneally injected into mice anesthetized with zoletil (50 mg/kg). After five days, the compound of the present invention (LMT-696; 2.5 mg/kg), LY255283 (2.5 mg/kg), U75302 (0.25 mg/kg) and DMSO were injected intraperitoneally three times every five days. At 15 weeks after the injection of the breast cancer cells, the mice were dissected to observe the cancer cell metastasis.

`CC(C)(O)c1ccccc1CC[C@@H](SCC1(CC(=O)O)CC1)c1cccc(/C=C/c2ccc3ccc(Cl)cc3n2)c1` [montelukast, reference compound] gave an AHR reduced [1] of 64%.
In the case of `CCCCC(=O)N(CC#Cc1ccc(C(=O)NC(C)C(=O)OC)cc1)c1ccccc1` (stereo not drawn) [LMT-1018, methyl 2-(4-(3-(N-phenylpentaneamido)prop-1-yn-1-yl)benzamido)propanoate], the inhibition at 10 µM [2] is reported as 71.6%.
`CCCCC(=O)N(CC#Cc1ccc(C(=O)N2CCN(C(C)C)CC2)cc1)c1cccc(F)c1` [LMT-886, N-(3-fluorophenyl)-N-(3-(4-(4-isopropylpiperazine-1-carbonyl)phenyl)prop-2-ynyl)pentaneamide] showed an inhibition at 10 µM [2] of 99%.
For `CCCCC(=O)N(CC#Cc1ccc(C(=O)N2CCNCC2)cc1)c1ccccc1` [LMT-694, N-phenyl-N-(3-(4-(piperazine-1-carbonyl)phenyl)prop-2-ynyl)pentanamide], the inhibition at 10 µM ([3]; 10 μM pre-treatment) was 90%, the “cell growth compared with the control DMSO” value [2] was 16.7% and the “inhibitory effect on chemotactic motility” value [4] was “did not exhibit the inhibitory effect”.
In the case of `CCCCC(=O)N(CC#Cc1cccc(C(=O)N2CCNCC2)c1)c1ccccc1` [LMT-837, N-phenyl-N-(3-(3-(piperazine-1-carbonyl)phenyl)prop-2-ynyl)pentaneamide], the inhibition at 10 µM [2] is reported as 65%.
For `CCCCC/C=C\C[C@@H](O)/C=C/c1cccc(C[C@@H](O)CCCCO)n1` [U75302, reference compound], the “metastasis of the cancer cells inhibited as compared with the control” value [5] was “not inhibited” and the “chemotactic motility as compared with cells treated with the ligand LTB4” value [4] was 90%.
Compound `CCCCC(=O)N(CC#Cc1ccc(C(=O)NCCN(C)C)cc1)c1ccccc1` [LMT-1016, N-(2-(dimethylamino)ethyl)-4-(3-(N-phenylpentaneamido)prop-1-yn-1-yl)benzamide] has an inhibition at 10 µM [2] of 99%.
For `CCCCC(=O)N(CC#Cc1ccc(C(=O)N2CCN(C)CC2)cc1)c1ccccc1` [LMT-692, N-(3-(4-(4-methylpiperazine-1-carbonyl)phenyl)prop-2-ynyl)-N-phenylpentanamide], the inhibition at 10 µM ([3]; 10 μM pre-treatment) was 66%, the IC50 ([3]; serum-free, read-out: IC50 of chemotactic motility inhibition) was 7.57 µM and the “cell growth compared with the control DMSO” value [2] was 88.0%. The “inhibitory effect on chemotactic motility” value [4] was “did not exhibit the inhibitory effect”.
In the case of `CCCCC(=O)N(CC#Cc1ccc(C(=O)NC(C)C(=O)O)cc1)c1ccccc1` (stereo not drawn) [LMT-1019, 2-(4-(3-(N-phenylpentaneamido)prop-1-yn-1-yl)benzamido)propanoic acid], the inhibition at 10 µM [2] is reported as 99%.
With `CCCCC(=O)N(CC#Cc1cccc(C(=O)N2CCN(C(C)C)CC2)c1)c1ccccc1` [LMT-842, N-(3-(3-(4-isopropylpiperazine-1-carbonyl)phenyl)prop-2-ynyl)-N-phenylpentaneamide] the inhibition at 10 µM [2] was 70%.
In the case of `CCc1cc(C(C)=O)c(O)cc1OCCCCCC(C)(C)c1nnn[nH]1` [LY255283, 1-[5-ethyl-2-hydroxy-4-[[6-methyl-6-(1H-tetrazol-5-yl)heptyl]oxy]phenyl]-ethanone, reference compound], the “metastasis of the cancer cells inhibited as compared with the control” value [5] is reported as 36%, the “chemotactic motility as compared with cells treated with the ligand LTB4” value ([3]; 10 μM pre-treatment) is reported as 90% and the “cell growth compared with the control DMSO” value [2] is reported as “approximately 90%”.
In the case of `CCCCC(=O)N(CC#Cc1ccc(C(=O)N2CCN(C(C)C)CC2)cc1)c1ccc(F)cc1` [LMT-841, N-(4-fluorophenyl)-N-(3-(4-(4-isopropylpiperazine-1-carbonyl)phenyl)prop-2-ynyl)pentaneamide], the inhibition at 10 µM [2] is reported as 60%.
Work on `CCCCC(=O)N(CC#Cc1ccc(C(=O)N(CC)CC)cc1)c1ccccc1` [LMT-883, N,N-diethyl-4-(3-(N-phenylpentaneamido)prop-1-ynyl)benzamide] yielded an inhibition at 10 µM [2] of 99%.
